Results published in paper PMC2788670 (Journal of medicinal chemistry, 2009).
“Also recorded” adds a separate entry of the source.

Legend:
Assay type in all cases: cell-based
HIV-1 NL4-3 = HIV-1 NL4-3 single-round infection assay in TZM-bl cells; settings: 200 TCID50, 2 days, luciferase, average of 3 independent experiments, Inactive = TC50/IC50 < 2
HIV-2 KR.X3 = HIV-2 KR.X3 single-round infection assay in TZM-bl cells; settings: for reduction of anti-HIV-2 activity after glycine addition compared to precursor: 13 versus 8, 14 versus 9; for IC50 (µM) HIV-2 KR.X3: TZM-bl cells, 200 TCID50, 2 days, luciferase, average of 3 independent experiments, Inactive = TC50/IC50 < 2
HIV-2 KR.X3-YU-2/V3 = HIV-2 KR.X3-YU-2/V3 chimeric virus infection assay in TZM-bl cells; settings: chimeric virus with V3 loop of HIV-1 YU-2; Figure 1, 4 independent experiments

| SMILES | IC50 (µM) HIV-1 NL4-3 (HIV-1 NL4-3) | IC50 (µM) HIV-2 KR.X3 (HIV-2 KR.X3) | other results |
| --- | --- | --- | --- |
| C=C(C)[C@@H]1CC[C@]2(C(=O)NCCCCC(=O)NCC(=O)O)CC[C@]3(C)[C@H](CC[C@@H]4[C@@]5(C)CC[C@H](O)C(C)(C)[C@@H]5CC[C@]43C)[C@@H]12 [Compound 13] | Inactive | – | reduction of anti-HIV-2 activity after glycine addition compared to precursor (HIV-2 KR.X3): approximately 15 fold |
| C=C(C)[C@@H]1CC[C@]2(C(=O)NCCCCCC(=O)NCC(=O)NCC(=O)O)CC[C@]3(C)[C@H](CC[C@@H]4[C@@]5(C)CC[C@H](O)C(C)(C)[C@@H]5CC[C@]43C)[C@@H]12 [Compound 21] | – | – | less potent against HIV-2 than 9 (HIV-2 KR.X3): approximately 10 fold |
| C=C(C)[C@@H]1CC[C@]2(C(=O)NCCCC(=O)O)CC[C@]3(C)[C@H](CC[C@@H]4[C@@]5(C)CC[C@H](O)C(C)(C)[C@@H]5CC[C@]43C)[C@@H]12 [Compound 7] | Inactive | – | – |
| C=C(C)[C@@H]1CC[C@]2(C(=O)NCCCCCCNC(C)=O)CC[C@]3(C)[C@H](CC[C@@H]4[C@@]5(C)CC[C@H](O)C(C)(C)[C@@H]5CC[C@]43C)[C@@H]12 [Compound 3] | – | completely inactive | – |
| C=C(C)[C@@H]1CC[C@]2(C(=O)NCCCCCCCCNC(C)=O)CC[C@]3(C)[C@H](CC[C@@H]4[C@@]5(C)CC[C@H](O)C(C)(C)[C@@H]5CC[C@]43C)[C@@H]12 [Compound 5] | – | Inactive | – |
| C=C(C)[C@@H]1CC[C@]2(C(=O)O)CC[C@]3(C)[C@H](CC[C@@H]4[C@@]5(C)CC[C@H](O)C(C)(C)[C@@H]5CC[C@]43C)[C@@H]12 [Compound 1, Betulinic acid, reference compound] | did not exhibit anti-HIV-1 or anti-HIV-2 activity; also recorded: Inactive | did not exhibit anti-HIV-1 or anti-HIV-2 activity; also recorded: Inactive | – |
| C=C(C)[C@@H]1CC[C@]2(C(=O)NCCCCCC(=O)N[C@@H](Cc3ccc(O)cc3)C(=O)O)CC[C@]3(C)[C@H](CC[C@@H]4[C@@]5(C)CC[C@H](O)C(C)(C)[C@@H]5CC[C@]43C)[C@@H]12 [Compound 19] | Inactive | – | – |
| C=C(C)[C@@H]1CC[C@]2(C(=O)NCCCCCCCC(=O)O)CC[C@]3(C)[C@H](CC[C@@H]4[C@@]5(C)CC[C@H](O)C(C)(C)[C@@H]5CC[C@]43C)[C@@H]12 [Compound 11] | – | Inactive | – |
| C=C(C)[C@@H]1CC[C@]2(C(=O)NCCCC(=O)NCC(=O)O)CC[C@]3(C)[C@H](CC[C@@H]4[C@@]5(C)CC[C@H](O)C(C)(C)[C@@H]5CC[C@]43C)[C@@H]12 [Compound 12] | Inactive | – | – |
| C=C(C)[C@@H]1CC[C@]2(C(=O)NCCCCCC(=O)NCC(=O)O)CC[C@]3(C)[C@H](CC[C@@H]4[C@@]5(C)CC[C@H](O)C(C)(C)[C@@H]5CC[C@]43C)[C@@H]12 [Compound 14] | – | – | reduction of anti-HIV-2 activity after glycine addition compared to precursor (HIV-2 KR.X3): approximately 2 fold; HIV-2 KR.X3-YU-2/V3 less sensitive compared to HIV-2 KR.X3 (HIV-2 KR.X3-YU-2/V3): approximately 5 fold |
| C=C(C)[C@@H]1CC[C@]2(C(=O)NCCCCCCCC(=O)N[C@@H](CC(C)C)[C@H](O)CC(=O)O)CC[C@]3(C)[C@H](CC[C@@H]4[C@@]5(C)CC[C@H](O)C(C)(C)[C@@H]5CC[C@]43C)[C@@H]12 [Compound 17, reference compound] | – | – | anti-HIV-2 activity less potent than its anti-HIV-1 activity (HIV-2 KR.X3; HIV-2 KR.X3 versus HIV-1 NL4-3): about 70 times |
| C=C(C)[C@@H]1CC[C@]2(C(=O)NCCCCCNC(C)=O)CC[C@]3(C)[C@H](CC[C@@H]4[C@@]5(C)CC[C@H](O)C(C)(C)[C@@H]5CC[C@]43C)[C@@H]12 [Compound 2] | Inactive | Inactive | – |
| C=C(C)[C@@H]1CC[C@]2(C(=O)NCCCCCCNC(=O)CC(=O)O)CC[C@]3(C)[C@H](CC[C@@H]4[C@@]5(C)CC[C@H](O)C(C)(C)[C@@H]5CC[C@]43C)[C@@H]12 [Compound 6] | – | Inactive | – |
| C=C(C)[C@@H]1CC[C@]2(C(=O)NCCCCCCCNC(C)=O)CC[C@]3(C)[C@H](CC[C@@H]4[C@@]5(C)CC[C@H](O)C(C)(C)[C@@H]5CC[C@]43C)[C@@H]12 [Compound 4, [[N-[3β-hydroxyl-lup-20(29)-en-28-oyl]-7-aminoheptyl]-carbamoyl]methane] | – | Inactive | – |
| C=C(C)[C@@H]1CC[C@]2(C(=O)O)CC[C@]3(C)[C@H](CC[C@@H]4[C@@]5(C)CC[C@H](OC(=O)CC(C)(C)C(=O)O)C(C)(C)[C@@H]5CC[C@]43C)[C@@H]12 [Compound 22, 3-O-(3’,3’-dimethylsuccinyl)-betulinic acid, reference compound] | – | did not inhibit HIV-2 replication; also recorded: Inactive | – |
